US6737383B1, “Herbicidal oxadiazolidines” (priority 1999, dated 2004)

What was measured:
sugar beet = experiment: Test B pre/postemergence sugar beet; type: in vivo, Beta vulgaris
In short: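 Test chemicals in a non-phytotoxic solvent mixture with surfactant were sprayed preemergence onto planted seeds and postemergence onto plants 2 to 18 cm tall (1- to 4-leaf stage). After twelve to sixteen days in a greenhouse, injury was visually rated against untreated controls from 0 (no effect) to 10 (complete control).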

rice = experiment: Test B flood test rice; type: in vivo, Oryza sativa
In short: (§1)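 Flood test on plants grown to the 2-leaf stage; treated plants kept in greenhouse twelve to sixteen days, then visually rated against controls on a 0 (no effect) to 10 (complete control) scale.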

smallflower flatsedge = experiment: Test B flood test smallflower flatsedge; type: in vivo, Cyperus difformis
In short: as §1

duck salad = experiment: Test B flood test duck salad; type: in vivo, Heteranthera limosa
In short: as §1

bamyardgrass = experiment: Test B flood test barnyardgrass; type: in vivo, Echinochloa crus-galli
In short: as §1

winter wheat [1] = experiment: Test E winter wheat; type: in vivo, Triticum aestivum; conditions: Postemergence; for Wheat (winter) plant response rating: Rate 250 g/ha
In short: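 Compounds formulated in non-phytotoxic solvent mixture with surfactant; for postemergence, sprayed on plants at 1- to 4-leaf stage grown in 60:40 sandy loam/greenhouse potting mix. Kept in greenhouse ~21 to 28 days, then visually rated against untreated controls.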

blackgrass = experiment: Test E blackgrass; type: in vivo, Alopecurus myosuroides; conditions: Preemergence; for Blackgrass plant response rating (0 to 100 scale): Rate 250 g/ha
green foxtail = experiment: Test E green foxtail; type: in vivo, Setaria viridis; conditions: Preemergence; for Green foxtail plant response rating (0 to 100 scale): Rate 250 g/ha
Italian ryegrass = experiment: Test E Italian ryegrass; type: in vivo, Lolium multiflorum; conditions: Preemergence; for I. Ryegrass plant response rating (0 to 100 scale): Rate 250 g/ha
winter wheat [2] = experiment: Test E winter wheat; type: in vivo, Triticum aestivum; conditions: Preemergence; for Wheat (winter) plant response rating (0 to 100 scale): Rate 250 g/ha
wild oat = experiment: Test E wild oat; type: in vivo, Avena fatua; conditions: Preemergence; for Wild oat plant response rating (0 to 100 scale): Rate 250 g/ha
winter barley = experiment: Test E winter barley; type: in vivo, Hordeum vulgare; conditions: Preemergence; for Barley (winter) plant response rating (0 to 100 scale): Rate 250 g/ha
[3] = Preemergence, Rate 250 g/ha, scale of 0 to 10 where 0 is no effect and 10 is complete control
[4] = Preemergence, Rate 500 g/ha, scale of 0 to 10 where 0 is no effect and 10 is complete control
[5] = Rate 125 g/ha, Preemergence, scale of 0 to 10 where 0 is no effect and 10 is complete control
[6] = Rate 500 g/ha, Postemergence, scale 0 to 10, 0 no effect, 10 complete control
[7] = Rate 62 g/ha, headed Pre-emergence (flood test species), scale 0 to 10 (0 no effect, 10 complete control)
[8] = Rate 125 g/ha, Pre-emergence, flood test species, scale 0 to 10 where 0 is no effect and 10 is complete control
[9] = Rate 250 g/ha, Pre-emergence, flood-test species, scale 0 to 10, 0 is no effect, 10 is complete control
[10] = Rate 500 g/ha, Pre-emergence, flood test species, scale 0 to 10 (0 no effect, 10 complete control)
[11] = Rate 1000 g/ha, 0 to 100 scale where 0 is no effect and 100 is complete control
[12] = 0 to 100 scale where 0 is no effect and 100 is complete control
[13] = Rate 500 g/ha, 0 to 100 scale, 0 is no effect, 100 is complete control
[14] = Rate 500 g/ha, 0 to 100 scale where 0 is no effect and 100 is complete control
[15] = Rate 1000 g/ha, 0 to 100 scale, 0 no effect, 100 complete control
[16] = Rate 125 g/ha, 0 to 100 scale (0 no effect, 100 complete control)
[17] = Rate 500 g/ha, 0 to 100 scale (0 no effect, 100 complete control)

SMILES: Cc1nc(C)c(Cn2c(=O)on(C(=O)N(c3ccc(F)cc3)C(C)C)c2=O)s1 [Compound 232]
- Sugarbeets plant response rating (sugar beet; Preemergence, Rate 62 g/ha, scale of 0 to 10 where 0 is no effect and 10 is complete control): 0
- Sugarbeets plant response rating (sugar beet; [3]): 4
- Plant response rating, Sugarbeets (sugar beet; [4]): 4
- Sugarbeets plant response rating (sugar beet; Rate 62 g/ha, Postemergence, scale of 0 to 10 where 0 is no effect and 10 is complete control): 0
- Sugarbeets plant response rating (sugar beet; Rate 125 g/ha, Postemergence, scale 0 to 10): 2
- Sugarbeets plant response rating (sugar beet; [5]): 0
- Plant response rating (0 to 10; 0 is no effect, 10 is complete control), Sugarbeets (sugar beet; Rate 250 g/ha, Postemergence): 2
- Sugarbeets plant response rating (sugar beet; [6]): 3
- Rice plant response rating (rice; [7]): 0
- Rice plant response rating (rice; [8]): 0
- Rice plant response rating (rice; [9]): 0
- Rice plant response rating (rice; [10]): 0
- S. Flatsedge plant response rating (smallflower flatsedge; [7]): 0
- S. Flatsedge plant response rating (smallflower flatsedge; [8]): 0
- S. Flatsedge plant response rating (smallflower flatsedge; [9]): 0
- S. Flatsedge plant response rating (smallflower flatsedge; [10]): 0
- Ducksalad plant response rating (duck salad; [7]): 0
- Ducksalad plant response rating (duck salad; [8]): 0
- Ducksalad plant response rating (duck salad; [9]): 0
- Ducksalad plant response rating (duck salad; [10]): 0
- Barnyardgrass plant response rating (bamyardgrass; [7]): 0
- Barnyardgrass plant response rating (bamyardgrass; [8]): 0
- Barnyardgrass plant response rating (bamyardgrass; [9]): 0
- Barnyardgrass plant response rating (bamyardgrass; [10]): 0
- Plant response rating, Wheat (winter) (winter wheat [1]; [11]): 60
- Wheat (winter) plant response rating (winter wheat [1]; [12]): 40
- Plant response rating, Wheat (winter) (winter wheat [1]; [13]): 50
- Blackgrass plant response rating (0 to 100 scale) (blackgrass): 30
- Plant response rating, Blackgrass (blackgrass; [14]): 50
- Plant response rating, Blackgrass (blackgrass; [15]): 50
- Green foxtail plant response rating (0 to 100 scale) (green foxtail): 95
- Plant response rating, Green foxtail (green foxtail; [14]): 90
- Plant response rating, Green foxtail (green foxtail; [15]): 100
- I. Ryegrass plant response rating (0 to 100 scale) (Italian ryegrass): 40
- Plant response rating, I. Ryegrass (Italian ryegrass; [14]): 50
- Plant response rating, I. Ryegrass (Italian ryegrass; [15]): 55
- Wheat (winter) plant response rating (0 to 100 scale) (winter wheat [2]): 30
- Plant response rating, Wheat (winter) (winter wheat [2]; [14]): 30
- Plant response rating, Wheat (winter) (winter wheat [2]; [15]): 50
- Wild oat plant response rating (0 to 100 scale) (wild oat): 55
- Plant response rating, Wild oat (wild oat; [14]): 50
- Plant response rating, Wild oat (wild oat; [15]): 60
- Barley (winter) plant response rating (0 to 100 scale) (winter barley): 20
- Plant response rating, Barley (winter) (winter barley; [14]): 20
- Plant response rating, Barley (winter) (winter barley; [15]): 55

SMILES: CC(C)N(C(=O)n1oc(=O)n(CC(C)(C)C)c1=O)c1ccc(F)cc1F [Compound 277]
- Sugarbeets plant response rating (sugar beet; [3]): 2
- Plant response rating, Sugarbeets (sugar beet; [4]): 7
- Sugarbeets plant response rating (sugar beet; Rate 62 g/ha, Postemergence, scale 0 to 10 (0 no effect, 10 complete control)): 1
- Sugarbeets plant response rating (sugar beet; Rate 125 g/ha, Postemergence, scale of 0 to 10 where 0 is no effect and 10 is complete control): 2
- Sugarbeets plant response rating (sugar beet; [5]): 1
- Plant response rating, Sugarbeets (sugar beet; Rate 250 g/ha, Postemergence, scale of 0 to 10 where 0 is no effect and 10 is complete control): 4
- Sugarbeets plant response rating (sugar beet; [6]): 5
- Rice plant response rating (rice; [7]): 0
- Rice plant response rating (rice; [8]): 0
- Rice plant response rating (rice; [9]): 0
- Rice plant response rating (rice; [10]): 2
- S. Flatsedge plant response rating (smallflower flatsedge; [7]): 0
- S. Flatsedge plant response rating (smallflower flatsedge; [8]): 0
- S. Flatsedge plant response rating (smallflower flatsedge; [9]): 0
- S. Flatsedge plant response rating (smallflower flatsedge; [10]): 5
- Ducksalad plant response rating (duck salad; [7]): 1
- Ducksalad plant response rating (duck salad; [8]): 2
- Ducksalad plant response rating (duck salad; [9]): 2
- Ducksalad plant response rating (duck salad; [10]): 2
- Barnyardgrass plant response rating (bamyardgrass; [7]): 2
- Barnyardgrass plant response rating (bamyardgrass; [8]): 2
- Barnyardgrass plant response rating (bamyardgrass; [9]): 1
- Barnyardgrass plant response rating (bamyardgrass; [10]): 9
- Plant response rating, Wheat (winter) (winter wheat [1]; Rate 125 g/ha, 0 to 100 scale, 0 is no effect, 100 is complete control): 0
- Plant response rating, Wheat (winter) (winter wheat [1]; [11]): 10
- Wheat (winter) plant response rating (winter wheat [1]; [12]): 0
- Plant response rating, Wheat (winter) (winter wheat [1]; [13]): 0
- Plant response rating, Blackgrass (blackgrass; [16]): 60
- Blackgrass plant response rating (0 to 100 scale) (blackgrass): 100
- Plant response rating, Blackgrass (blackgrass; [17]): 70
- Plant response rating, Blackgrass (blackgrass; [15]): 100
- Plant response rating, Green foxtail (green foxtail; [16]): 95
- Green foxtail plant response rating (0 to 100 scale) (green foxtail): 100
- Plant response rating, Green foxtail (green foxtail; [17]): 100
- Plant response rating, Green foxtail (green foxtail; [15]): 100
- Plant response rating, I. Ryegrass (Italian ryegrass; [16]): 65
- I. Ryegrass plant response rating (0 to 100 scale) (Italian ryegrass): 75
- Plant response rating, I. Ryegrass (Italian ryegrass; [17]): 95
- Plant response rating, I. Ryegrass (Italian ryegrass; [15]): 100
- Plant response rating, Wheat (winter) (winter wheat [2]; [16]): 30
- Wheat (winter) plant response rating (0 to 100 scale) (winter wheat [2]): 20
- Plant response rating, Wheat (winter) (winter wheat [2]; [17]): 10
- Plant response rating, Wheat (winter) (winter wheat [2]; [15]): 50
- Plant response rating, Wild oat (wild oat; [16]): 50
- Wild oat plant response rating (0 to 100 scale) (wild oat): 60
- Plant response rating, Wild oat (wild oat; [17]): 65
- Plant response rating, Wild oat (wild oat; [15]): 70
- Plant response rating, Barley (winter) (winter barley; [16]): 30
- Barley (winter) plant response rating (0 to 100 scale) (winter barley): 50
- Plant response rating, Barley (winter) (winter barley; [17]): 65
- Plant response rating, Barley (winter) (winter barley; [15]): 50
